The target of data set [1] is T1, E. coli TP (Escherichia coli, UniProt P07650).
T1 construct: purchased Sigma Aldrich T2807-1KU
Nature of the data set: In vitro E. coli thymidine phosphorylase inhibition, spectrophotometric assay at 290 nm. The format is biochemical. To be noted: for inhibition at 25 µM: compound at 25 µM (maximum solubility); for inhibition at 30 µM: read-out: TP inhibition (%) at maximum solubility (30 µM). How it is done: The adopted protocol is a modification of the original method developed by Khan[51]. TP activity and inhibition assays were based on the phosphorolysis of thymidine to thymine, this conversion results in a significant spectrophotometric decrease. At 290 nm and pH 7.4, thymidine has a higher extinction coefficient than thymine (Δε = −480 M^−1 cm^−1). The absorbance at 290 nm was measured every 2 min for 30 min in 96-well plates at 25 °C.
Thymidine was dissolved in buffer (3 mM). […] All experiments were conducted in triplicate.
The method reported by Khan et al.[51] has been adapted to a screening in 96-well plates (200 µL well, UV-Star® 96-well microplate, Greiner). Each well contained 160 µL of 50 mM KH2PO4 buffer (pH 7.4), 0.006 U of E. coli TP (T2807-1KU, Sigma Aldrich), and 20 µL of the tested compound solution. […] The decrease in absorbance due to conversion of thymidine to thymine was followed during 30 min (PowerWave HT Microplate Reader, Biotek) at 25 °C, with one measure every 2 min and a 30 s shaking before each measure.

The nature of data set [2]: Solubility in the incubation medium. To be noted: for solubility: aqueous buffer, kinetic from dmso stock; for Solubility (in words): incubation medium.
Setting [3] is: compound at 50 µM, 2.5% DMSO, average of three measurements.

In general, inhibition refers to the percentage by which the read-out fell short of the control. The term solubility denotes the concentration that dissolves in the medium under given conditions. Lower therefore signals little dissolved substance. As usually defined, the melting point is the temperature of the solid-liquid transition.

Values after ≈ are worked out from the molar mass of the structure shown. Structures can show the parent of a compound that is named as a salt.

T1 sequence (P07650 whole entry): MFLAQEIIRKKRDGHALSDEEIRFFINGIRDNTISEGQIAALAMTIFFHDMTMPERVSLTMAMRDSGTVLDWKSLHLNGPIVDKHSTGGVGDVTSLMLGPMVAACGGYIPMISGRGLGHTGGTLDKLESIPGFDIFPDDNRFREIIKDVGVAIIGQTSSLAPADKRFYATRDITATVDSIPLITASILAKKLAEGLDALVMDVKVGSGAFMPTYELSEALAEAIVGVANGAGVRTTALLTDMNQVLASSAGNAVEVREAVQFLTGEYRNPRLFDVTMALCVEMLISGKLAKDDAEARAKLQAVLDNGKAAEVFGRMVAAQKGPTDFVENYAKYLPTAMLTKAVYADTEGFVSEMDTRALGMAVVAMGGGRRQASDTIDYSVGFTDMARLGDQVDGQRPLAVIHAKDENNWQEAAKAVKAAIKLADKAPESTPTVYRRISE

Turning to `O=c1[nH]c(=O)c2cc3ccc(Cl)cc3nc2[nH]1` [Compound 2j], the inhibition at 50 µM in data set [1] (setting [3]) was determined as 0%. Further, the solubility in data set [2] was 50 µM (≈ 12.4 µg/mL). In turn, `O=C1c2cc3cc4c(cc3nc2C(=O)N1Cc1ccccc1)OCO4` [Compound 24, 6,7-Methylenedioxy-2-benzylpyrrolo[3,4-b]quinoline-1,3-dione] came in with a melting point of 191 to 193 °C. For the same molecule, at 50 µM the inhibition in data set [1] (setting [3]) was 20%. `Cc1ccc2nc3[nH]c(=O)[nH]c(=O)c3cc2c1` [Compound 2a] displayed an inhibition at 50 µM in data set [1] (setting [3]) of 0%. On to `CCC(CCCn1c(=O)c(Br)cn(C(CC)CCCN2C(=O)c3cc4cc5c(cc4nc3C2=O)OCO5)c1=O)n1cc(Br)c(=O)[nH]c1=O` (stereo not shown) [Compound 17, 2-[4-[5-Bromo-3-[4-(5-bromo-2,4-dioxo-3,4-dihydropyrimidine-1(2H)-yl)hexyl]-2,4-dioxo-3,4-dihydropyrimidine-1(2H)-yl]hexyl]-6,7-méthylènedioxy-2H-pyrrolo[3,4-b]quinoline-1,3-dione], for which the melting point was in the range of 144 to 148 °C. Molecule `O=C1NC(=O)c2nc3[nH]c(=O)[nH]c(=O)c3cc21` [Compound 27] showed an inhibition at 50 µM in data set [1] (setting [3]) of 0%. `O=c1[nH]c(=O)c2cc3ccc(OCc4ccccc4)cc3nc2[nH]1` [Compound 2f] returned an inhibition at 50 µM in data set [1] (setting [3]) of 0%. The molecule further had a solubility in data set [2] of 50 µM (≈ 16 µg/mL). The molecule `O=c1[nH]c(=O)c2cc3ccc4cc5ccccc5cc4c3nc2[nH]1` [Compound 2o, Naphto[2,3-h]pyrimido[4,5-b]quinoline-2,4(1H,3H)-dione] registered a melting point greater than 360 °C. In data set [1] (2.5% DMSO), the inhibition at 25 µM amounted to 0%. In data set [2], the solubility was determined as 25 µM (≈ 7.83 µg/mL) and the “Solubility (in words)” value is given as “less soluble”. In data set [1] (setting [3]), `CN(C)CCCN1C(=O)c2cc3c(=O)[nH]c(=O)[nH]c3nc2C1=O` [Compound 28h, 7-(3-(Dimethylamino)propyl)-1H-pyrrolo[3′,4′:5,6]pyrido [2,3-d]pyrimidine-2,4,6,8 (3H,7H)-tetraone, hydrochloride] showed an inhibition at 50 µM of 0%. For `CN(C)CCCN1C(=O)c2cc3c(=O)[nH]c(=O)[nH]c3nc2C1=O` (as salt: hydrochloride) [Compound 28h, 7-(3-(Dimethylamino)propyl)-1H-pyrrolo[3′,4′:5,6]pyrido [2,3-d]pyrimidine-2,4,6,8 (3H,7H)-tetraone, hydrochloride], the melting point lay in the range of 309 to 311 °C. In turn, `O=c1[nH]c(=O)c2cc3c(ccc4ccccc43)nc2[nH]1` [Compound 2m] returned an inhibition at 50 µM in data set [1] (setting [3]) of 29%. Turning to `COc1cc(-c2c3cc4c(cc3nc3[nH]c(=O)[nH]c(=O)c23)OCO4)cc(OC)c1OC` [Compound 2r], the inhibition at 25 µM in data set [1] (2.5% DMSO) turned out to be 0%. Also, the concentration in solution in data set [2] (solubility) was 25 µM (≈ 10.6 µg/mL). In the case of `O=C1c2cc3c(=O)[nH]c(=O)[nH]c3nc2C(=O)N1Cc1ccc(Cl)cc1Cl` [Compound 28d], the inhibition at 30 µM in data set [1] was 0%. Besides, in data set [2], the solubility was 30 µM (≈ 11.7 µg/mL). Regarding `O=c1[nH]c(=O)c2cc3ccc(Oc4ccccc4)cc3nc2[nH]1` [Compound 2e, 8-Phenoxypyrimido[4,5-b]quinoline-2,4(1H,3H)-dione], the melting point is 334 to 336 °C (dec.). Also, the inhibition at 50 µM in data set [1] (setting [3]) came out at 30%. In data set [2], this molecule registered a solubility of 50 µM (≈ 15.3 µg/mL).

With `O=C1c2cc3cc4c(cc3nc2C(=O)N1CCCCCCn1cc(Br)c(=O)[nH]c1=O)OCO4` [Compound 16b, 2-[6-(5-Bromo-2,4-dioxo-3,4-dihydropyrimidine-1(2H)-yl)hexyl]-6,7-methylenedioxy-2H-pyrrolo[3,4-b]quinoline-1,3-dione], the melting point lay in the range of 282 to 283 °C. Also, 12.5 µM produced 30% inhibition in data set [1] (compound at 12.5 µM (maximum solubility), 2.5% DMSO). Further, in data set [2], the concentration in solution (solubility) was 12.5 µM (≈ 6.44 µg/mL) and the “Solubility (in words)” value is reported as “less soluble”. In the case of “2-[4-(2,4-Dioxo-5-methyl-3,4-dihydropyrimidine-1(2H)-yl)hexyl]-6,7-methylenedioxy-2H-pyrrolo[3,4-b]quinoline-1,3-dione [Compound 13b]”, in data set [1] (setting [3]), the “TP inhibition (%) at 50 µM” value is reported as 0% at 50 µM. For the molecule `COc1cc2nc3[nH]c(=O)[nH]c(=O)c3cc2c(OC)c1OC` [Compound 2h], in data set [1] (compound at 15 µM (maximum solubility), 2.5% DMSO), the inhibition at 15 µM came to 0%. Moreover, in data set [2], the solubility turned out to be 15 µM (≈ 4.55 µg/mL) and the “Solubility (in words)” value is reported as “sparingly soluble”.

Take `O=c1[nH]c(=O)c2cc3ccc(Cc4ccccc4)cc3nc2[nH]1` [Compound 2i, 8-Benzylpyrimido[4,5-b]quinoline-2,4(1H,3H)-dione]: the melting point is 297 to 299 °C (dec.). Also, 50 µM produced 30% inhibition in data set [1] (setting [3]). Further, in data set [2], the concentration in solution (solubility) was 50 µM (≈ 15.2 µg/mL). Regarding `O=C1c2cc3cc4c(cc3nc2C(=O)N1Cc1[nH]c(=O)[nH]c(=O)c1Cl)OCO4` [Compound 23a, 2-[(5-Chloro-2,6-dioxo-1,2,3,6-tetrahydropyrimidin-4-yl)methyl]-6,7-methylenedioxy-1H-pyrrolo[3,4-b]quinoline-1,3(2H)-dione], the melting point is 352 to 354 °C (dec.). In data set [1] (setting [3]), this molecule showed an inhibition at 50 µM of 0%. In turn, `O=c1[nH]c(=O)c2cc[nH]c2[nH]1` [Compound 7-DX, 7-Deazaxanthine, reference compound] yielded an inhibition at 50 µM in data set [1] (setting [3]) of 60%. In turn, `Cc1cccc2cc3c(=O)[nH]c(=O)[nH]c3nc12` [Compound 2c] gave an inhibition at 50 µM in data set [1] (setting [3]) of 14%. Turning to `Cc1ccc2cc3c(=O)[nH]c(=O)[nH]c3nc2c1` [Compound 2b], in data set [1] (setting [3]), the inhibition at 50 µM turned out to be 0%. In the case of `Cc1c2cc3c(cc2nc2[nH]c(=O)[nH]c(=O)c12)OCO3` [Compound 2q], the inhibition at 50 µM in data set [1] (setting [3]) was found to be 0%. On to `O=c1[nH]c(=O)c2cc3ccc(C(F)(F)F)cc3nc2[nH]1` [Compound 2k], for which the inhibition at 50 µM in data set [1] (setting [3]) turned out to be 0%. Molecule `Cc1cn(CCCCN2C(=O)c3cc4cc5c(cc4nc3C2=O)OCO5)c(=O)[nH]c1=O` [Compound 13a, 2-[4-(2,4-Dioxo-5-methyl-3,4-dihydropyrimidine-1(2H)-yl)butyl]-6,7-methylenedioxy-2H-pyrrolo[3,4-b]quinoline-1,3-dione] gave a melting point of 302 °C. 50 µM produced 25% inhibition in data set [1] (setting [3]). In the case of `O=C1c2cc3c(=O)[nH]c(=O)[nH]c3nc2C(=O)N1CC1CCCCC1` [Compound 28g], the inhibition at 30 µM in data set [1] turned out to be 0%. The same molecule returned a solubility in data set [2] of 30 µM (≈ 9.85 µg/mL). Regarding `O=C1c2cc3c(=O)[nH]c(=O)[nH]c3nc2C(=O)N1CCc1ccccc1` [Compound 28e, 7-Phenylethyl-1H-pyrrolo[3′,4′:5,6]pyrido[2,3-d]pyrimidine-2,4,6,8(3H,7H)-tetraone], the melting point lay in the range of 359 to 361 °C. This molecule gave an inhibition at 50 µM in data set [1] (setting [3]) of 0%.

In the case of `O=C1c2cc3cc4c(cc3nc2C(=O)N1Cc1[nH]c(=O)[nH]c(=O)c1I)OCO4` [Compound 23c, 2-[(5-Iodo-2,6-dioxo-1,2,3,6-tetrahydropyrimidin-4-yl)methyl]-6,7-methylenedioxy-1H-pyrrolo[3,4-b]quinoline-1,3(2H)-dione], the melting point was 365 to 367 °C (dec.). Moreover, in data set [1] (setting [3]), the inhibition at 50 µM turned out to be 0%. Turning to `O=C1c2cc3c(=O)[nH]c(=O)[nH]c3nc2C(=O)N1Cc1cccnc1` [Compound 28f, 7-(Pyridin-3-ylmethyl)-1H-pyrrolo[3′,4′:5,6]pyrido[2,3-d]pyrimidine-2,4,6,8(3H,7H)-tetraone], the melting point is greater than 360 °C. In addition, the inhibition at 50 µM in data set [1] (setting [3]) turned out to be 0%.

Regarding `COc1ccc(CN2C(=O)c3cc4c(=O)[nH]c(=O)[nH]c4nc3C2=O)c(OC)c1` [Compound 28b], in data set [1] (setting [3]), at 50 µM the inhibition was 0%.

Source of the values: PMC8725971, “Polycyclic nitrogen heterocycles as potential thymidine phosphorylase inhibitors: synthesis, biological evaluation, and molecular docking study” (Journal of Enzyme Inhibition and Medicinal Chemistry, 2021).
